Measurements as given in US9051270B2, “Pyridone amides as modulators of sodium channels” (Vertex Pharmaceuticals Incorporated, priority 2013, dated 2015).

Tests used:
[1] = Microsomal stability assay, human liver microsomes (HLM); type: in vitro ADME; details: human liver microsomes 0.5 mg/mL, 1 uM substrate, 2 mM NADPH, 37° C., referenced against time zero control
Experimental: (§1) Microsomal Stability Assay.
(§2) Compounds were incubated at 37° C. and shaken for 30 minutes in a phosphate buffered solution with either rat or human liver microsomes and the cofactor NADPH. A time zero control was similarly prepared, however with NADPH excluded. The final incubation concentrations were 1 uM substrate (0.2% DMSO), 0.5 mg/mL liver microsome, 2 mM NADPH, and 0.1 M phosphate. Reactions were quenched and proteins precipitated with the addition of 2 volume equivalents of ice cold acetonitrile containing an internal standard. Following a centrifugation step, aliquots from the quenched incubations were further diluted with 4 volume equivalents of a 50% aqueous methanol solution and then subjected to LC/MS/MS analysis for quantitation of parent compound. Microsome stability values were calculated as the percent of substrate remaining after 30 minutes referenced against the time zero control.
(§3) Microsomal stability in rat and human liver microsomes were determined for selected compounds of the present invention using the above assay. Table 4 provides the human liver microsomes (“HLM”) and rat liver microsomes (“RLM”) stability data as the percent of compound remaining after 30 minutes referenced against the time zero control.

[2] = Microsomal stability assay, rat liver microsomes (RLM); type: in vitro ADME; details: rat liver microsomes 0.5 mg/mL, 1 uM substrate, 2 mM NADPH, 37° C., referenced against time zero control
Experimental: as §1, §2, §3

human Nav1.8 = human Nav1.8 (Homo sapiens (Human), UniProt Q9Y5Y9); assay: E-VIPR optical membrane potential assay with electrical stimulation; type: cell-based; details: HEK cells expressing human Nav1.8
Chain of human Nav1.8 (Q9Y5Y9 whole entry): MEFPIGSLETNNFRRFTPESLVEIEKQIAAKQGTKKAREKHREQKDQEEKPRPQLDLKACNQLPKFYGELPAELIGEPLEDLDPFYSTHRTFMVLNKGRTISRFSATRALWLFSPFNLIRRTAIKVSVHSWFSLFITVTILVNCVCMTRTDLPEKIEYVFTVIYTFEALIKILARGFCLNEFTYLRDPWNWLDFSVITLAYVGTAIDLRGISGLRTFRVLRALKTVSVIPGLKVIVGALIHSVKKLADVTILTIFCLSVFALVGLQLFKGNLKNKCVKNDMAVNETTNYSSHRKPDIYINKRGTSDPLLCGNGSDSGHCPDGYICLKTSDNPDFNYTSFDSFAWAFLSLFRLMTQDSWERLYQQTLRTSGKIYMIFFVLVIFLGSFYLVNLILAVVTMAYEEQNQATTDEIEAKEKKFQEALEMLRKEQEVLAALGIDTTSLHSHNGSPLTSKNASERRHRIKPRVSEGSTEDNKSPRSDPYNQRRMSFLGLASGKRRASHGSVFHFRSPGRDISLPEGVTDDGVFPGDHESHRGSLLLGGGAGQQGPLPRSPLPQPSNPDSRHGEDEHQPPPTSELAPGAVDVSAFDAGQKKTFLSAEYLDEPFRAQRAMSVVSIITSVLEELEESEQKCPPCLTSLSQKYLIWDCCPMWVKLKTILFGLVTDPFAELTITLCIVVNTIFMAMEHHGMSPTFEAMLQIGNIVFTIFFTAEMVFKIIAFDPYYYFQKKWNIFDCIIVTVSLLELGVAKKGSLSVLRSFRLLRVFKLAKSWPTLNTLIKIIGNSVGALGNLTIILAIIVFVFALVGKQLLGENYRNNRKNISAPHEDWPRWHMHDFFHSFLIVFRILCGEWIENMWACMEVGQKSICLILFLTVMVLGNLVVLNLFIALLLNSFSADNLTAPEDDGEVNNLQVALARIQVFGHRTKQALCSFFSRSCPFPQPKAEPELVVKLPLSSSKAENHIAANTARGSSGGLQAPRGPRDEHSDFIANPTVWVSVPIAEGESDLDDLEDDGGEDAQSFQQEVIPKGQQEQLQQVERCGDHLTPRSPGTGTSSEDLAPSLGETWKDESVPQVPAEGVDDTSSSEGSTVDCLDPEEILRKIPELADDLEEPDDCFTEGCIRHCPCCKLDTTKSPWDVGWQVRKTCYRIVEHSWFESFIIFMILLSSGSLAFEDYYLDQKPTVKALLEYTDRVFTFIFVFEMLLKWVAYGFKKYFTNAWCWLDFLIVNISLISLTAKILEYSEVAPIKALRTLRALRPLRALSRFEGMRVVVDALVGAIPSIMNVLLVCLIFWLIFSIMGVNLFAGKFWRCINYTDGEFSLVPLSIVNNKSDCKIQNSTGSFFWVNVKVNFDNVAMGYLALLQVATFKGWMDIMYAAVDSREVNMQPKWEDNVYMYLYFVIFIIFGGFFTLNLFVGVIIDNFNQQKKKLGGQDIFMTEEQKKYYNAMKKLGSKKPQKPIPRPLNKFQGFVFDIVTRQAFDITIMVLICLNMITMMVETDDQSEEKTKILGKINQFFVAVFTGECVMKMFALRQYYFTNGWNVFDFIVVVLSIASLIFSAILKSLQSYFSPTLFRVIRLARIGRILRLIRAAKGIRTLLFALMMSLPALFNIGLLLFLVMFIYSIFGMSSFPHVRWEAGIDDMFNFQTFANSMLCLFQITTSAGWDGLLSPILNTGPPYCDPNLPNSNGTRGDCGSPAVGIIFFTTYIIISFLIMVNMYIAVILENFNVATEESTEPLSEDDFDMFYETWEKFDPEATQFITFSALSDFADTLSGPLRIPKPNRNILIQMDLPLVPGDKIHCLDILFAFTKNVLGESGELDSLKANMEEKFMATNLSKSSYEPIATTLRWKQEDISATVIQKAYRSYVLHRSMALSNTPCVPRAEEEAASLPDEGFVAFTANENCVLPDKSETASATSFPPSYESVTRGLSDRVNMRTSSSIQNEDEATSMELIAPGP

| Compound | HLM (% remaining @ 30 minutes) [1] | RLM (% remaining @ 30 minutes) [2] | IC50 (human Nav1.8) |
| --- | --- | --- | --- |
| O=C(Nc1cc[nH]c(=O)c1)c1cc(OC(F)(F)F)ccc1Oc1ccc(F)cc1F [Compound 33, 2-(2,4-difluorophenoxy)-N-(2-oxo-1,2-dihydropyridin-4-yl)-5-(trifluoromethoxy)benzamide] | 100% | 110% | 0.095 µM |
| O=C(Nc1cc[nH]c(=O)c1)c1cc(C(F)(F)F)ccc1Oc1ccccc1OC(F)(F)F [Compound 75, N-(2-oxo-1,2-dihydropyridin-4-yl)-2-(2-(trifluoromethoxy)phenoxy)-5-(trifluoromethyl)benzamide] | 90% | 95% | 0.051 µM |
| Cc1cc(F)ccc1Oc1ccc(C(F)(F)F)cc1C(=O)Nc1cc[nH]c(=O)c1 [Compound 31, 2-(4-fluoro-2-methylphenoxy)-N-(2-oxo-1,2-dihydropyridin-4-yl)-5-(trifluoromethyl)benzamide] | 92% | 91% | 0.017 µM |
| O=C(Nc1cc[nH]c(=O)c1)c1ccc(C(F)(F)F)cc1Oc1ccc(OC(F)(F)F)cc1 [Compound 79, N-(2-oxo-1,2-dihydropyridin-4-yl)-2-(4-(trifluoromethoxy)phenoxy)-4-(trifluoromethyl)benzamide] | 103% | 100% | 0.011 µM |
| CCOc1ccc(Oc2ccc(C(F)(F)F)cc2C(=O)Nc2cc[nH]c(=O)c2)cc1 [Compound 44, 2-(4-ethoxyphenoxy)-N-(2-oxo-1,2-dihydropyridin-4-yl)-5-(trifluoromethyl)benzamide] | 93% | 84% | 0.02 µM |
| O=C(Nc1cc[nH]c(=O)c1)c1cc(F)c(Cl)cc1Oc1ccc(F)cc1Cl [Compound 109, 4-chloro-2-(2-chloro-4-fluorophenoxy)-5-fluoro-N-(2-oxo-1,2-dihydropyridin-4-yl)benzamide] | 103% | 100% | 0.019 µM |
| O=C(Nc1cc[nH]c(=O)c1)c1cc(C(F)(F)F)ccc1Oc1ccc(OC(F)(F)F)cc1 [Compound 72, N-(2-oxo-1,2-dihydropyridin-4-yl)-2-(4-(trifluoromethoxy)phenoxy)-5-(trifluoromethyl)benzamide] | 100% | 95.5% | 0.013 µM |
| Cc1cc(F)ccc1Oc1cc(Cl)ccc1C(=O)Nc1cc[nH]c(=O)c1 [Compound 20, 4-chloro-2-(4-fluoro-2-methylphenoxy)-N-(2-oxo-1,2-dihydropyridin-4-yl)benzamide] | 104% | 88% | 0.03 µM |
| O=C(Nc1cc[nH]c(=O)c1)c1cc(C(F)(F)F)ccc1Oc1ccc(F)cc1Cl [Compound 29, 2-(2-chloro-4-fluorophenoxy)-N-(2-oxo-1,2-dihydropyridin-4-yl)-5-(trifluoromethyl)benzamide] | 107% | 107% | 0.028 µM |
| Cc1ccccc1Oc1ccc(C(F)(F)F)cc1C(=O)Nc1cc[nH]c(=O)c1 [Compound 28, N-(2-oxo-1,2-dihydropyridin-4-yl)-2-(o-tolyloxy)-5-(trifluoromethyl)benzamide] | 79% | 70% | 0.044 µM |
